Measured values as given in ChEMBL document CHEMBL4387753 (Bioorg Med Chem, 2019).
In brackets after ≈: the same amount, converted by molar mass.

How the values were obtained:
Assay type in all cases: functional
[1] = test system: Staphylococcus aureus; experiment: Antibacterial activity against methicillin-resistant Staphylococcus aureus ATCC 43300 incubated for 24 hrs by CLSI protocol based broth microdilution method; conditions: ATCC 43300, 24 h
[2] = test system: Staphylococcus aureus; experiment: Antibacterial activity against Staphylococcus aureus clinical isolate incubated for 24 hrs by CLSI protocol based broth microdilution method
[3] = test system: Pseudomonas aeruginosa; experiment: Antibacterial activity against Pseudomonas aeruginosa ATCC 27853 incubated for 24 hrs by CLSI protocol based broth microdilution method; conditions: ATCC 27853, 24 h
[4] = test system: Bacillus pumilus; experiment: Antibacterial activity against Bacillus pumilus CMCC63202 incubated for 24 hrs by CLSI protocol based broth microdilution method; conditions: CMCC63202, 24 h
[5] = test system: Escherichia coli; experiment: Antibacterial activity against Escherichia coli ATCC 25922 incubated for 24 hrs by CLSI protocol based broth microdilution method; conditions: ATCC 25922, 24 h
[6] = test system: Staphylococcus aureus; experiment: Antibacterial activity against penicillin-resistant Staphylococcus aureus clinical isolate incubated for 24 hrs by CLSI protocol based broth microdilution method
[7] = test system: Bacillus subtilis; experiment: Antibacterial activity against Bacillus subtilis ATCC 9372 incubated for 24 hrs by CLSI protocol based broth microdilution method; conditions: ATCC 9372, 24 h
[8] = test system: Staphylococcus aureus; experiment: Antibacterial activity against Staphylococcus aureus ATCC 25923 incubated for 24 hrs by CLSI protocol based broth microdilution method; conditions: ATCC 25923, 24 h

Compound	MIC [1] [µg/mL]	MIC [2] [µg/mL]	MIC [3] [µg/mL]	MIC [4] [µg/mL]	MIC [5] [µg/mL]	MIC [6] [µg/mL]	MIC [7] [µg/mL]	MIC [8] [µg/mL]
NC(=O)c1c(F)ccc(OCc2nn(-c3ccc(C(F)(F)F)cc3)c(=O)o2)c1F	2 (≈ 4.82 µM)	4 (≈ 9.63 µM)	> 64	2 (≈ 4.82 µM)	> 64	4 (≈ 9.63 µM)	0.125 (≈ 0.301 µM)	4 (≈ 9.63 µM)
COc1ccc(-n2nc(COc3ccc(F)c(C(N)=O)c3F)oc2=O)cc1	4 (≈ 10.6 µM)	4 (≈ 10.6 µM)	> 64	8 (≈ 21.2 µM)	> 64	4 (≈ 10.6 µM)	1 (≈ 2.65 µM)	2 (≈ 5.3 µM)
N#Cc1ccc(-n2nc(COc3ccc(F)c(C(N)=O)c3F)oc2=O)cc1	4 (≈ 10.7 µM)	16 (≈ 43 µM)	> 64	4 (≈ 10.7 µM)	> 64	8 (≈ 21.5 µM)	2 (≈ 5.37 µM)	4 (≈ 10.7 µM)
NC(=O)c1c(F)ccc(OCc2nn(-c3ccc(Cl)cc3)c(=O)o2)c1F	2 (≈ 5.24 µM)	2 (≈ 5.24 µM)	> 64	2 (≈ 5.24 µM)	> 64	2 (≈ 5.24 µM)	0.25 (≈ 0.655 µM)	1 (≈ 2.62 µM)
Cc1cc(Cl)ccc1-n1nc(COc2ccc(F)c(C(N)=O)c2F)oc1=O	2 (≈ 5.05 µM)	4 (≈ 10.1 µM)	> 64	0.5 (≈ 1.26 µM)	> 64	4 (≈ 10.1 µM)	0.5 (≈ 1.26 µM)	4 (≈ 10.1 µM)
CC(C)Cn1c(COc2ccc(F)c(C(N)=O)c2F)nn(-c2ccc(Br)cc2)c1=O	> 64		> 64	> 64	> 64	> 64	> 64	> 64
CC(C)CCn1c(COc2ccc(F)c(C(N)=O)c2F)nn(-c2ccc(Br)cc2)c1=O	> 64		> 64	> 64	> 64	> 64	> 64	> 64
CC(C)(C)c1ccc(-n2nc(CCOc3ccc(F)c(C(N)=O)c3F)oc2=O)cc1	1 (≈ 2.4 µM)	2 (≈ 4.79 µM)	> 64	≤ 0.125	> 64	4 (≈ 9.58 µM)	0.25 (≈ 0.599 µM)	4 (≈ 9.58 µM)
CC(C)(C)c1ccc(Cn2nc(COc3ccc(F)c(C(N)=O)c3F)oc2=O)cc1	> 64	> 64	> 64	32 (≈ 76.7 µM)	> 64	> 64	32 (≈ 76.7 µM)	> 64
CC(C)(C)c1ccc(-n2nc(COc3ccc(F)c(C(N)=O)c3F)oc2=O)cc1	8 (≈ 19.8 µM)	16 (≈ 39.7 µM)	> 64	2 (≈ 4.96 µM)	> 64	16 (≈ 39.7 µM)	1 (≈ 2.48 µM)	8 (≈ 19.8 µM)
CCCCc1ccc(N2N=C(COc3ccc(F)c(C(N)=O)c3F)CC2=O)cc1	> 64		> 64	> 64	> 64	64 (≈ 159 µM)	> 64	> 64
NC(=O)c1c(F)ccc(OCCc2nn(-c3ccc(Br)cc3)c(=O)o2)c1F	2 (≈ 4.54 µM)	4 (≈ 9.09 µM)	> 64	≤ 0.125	> 64	4 (≈ 9.09 µM)	1 (≈ 2.27 µM)	4 (≈ 9.09 µM)
CN(C)n1c(COc2ccc(F)c(C(N)=O)c2F)nn(-c2ccc(Br)cc2)c1=O	16 (≈ 34.2 µM)		> 64	32 (≈ 68.3 µM)	> 64	32 (≈ 68.3 µM)	32 (≈ 68.3 µM)	32 (≈ 68.3 µM)
NC(=O)c1c(F)ccc(OCc2nn(-c3ccccc3)c(=O)o2)c1F	16 (≈ 46.1 µM)	16 (≈ 46.1 µM)	> 64	64 (≈ 184 µM)	> 64	32 (≈ 92.1 µM)	4 (≈ 11.5 µM)	16 (≈ 46.1 µM)
CC(C)(C)c1ccc(N2N=C(COc3ccc(F)c(C(N)=O)c3F)CC2=O)cc1	> 64		> 64	> 64	> 64	64 (≈ 159 µM)	> 64	> 64
NC(=O)c1c(F)ccc(OCc2nn(-c3ccc(Br)cc3)c(=O)n2N)c1F	> 64		> 64	64 (≈ 145 µM)	> 64	> 64	16 (≈ 36.3 µM)	> 64
NC(=O)c1c(F)ccc(OCc2nn(-c3cccc(Cl)c3)c(=O)o2)c1F	> 64	> 64	> 64	> 64	> 64	> 64	8 (≈ 21 µM)	> 64
NC(=O)c1c(F)ccc(OCc2nn(-c3ccc(Br)cc3)c(=O)n2Cc2ccccc2)c1F	> 64		> 64	> 64	> 64	> 64	> 64	> 64
NC(=O)c1c(F)ccc(OCc2nn(Cc3ccc(Br)cc3)c(=O)o2)c1F	64 (≈ 145 µM)	64 (≈ 145 µM)	> 64	32 (≈ 72.7 µM)	> 64	> 64	8 (≈ 18.2 µM)	> 64
NC(=O)c1c(F)ccc(OCc2nn(Cc3ccc(Cl)cc3)c(=O)o2)c1F	64 (≈ 162 µM)	> 64	> 64	32 (≈ 80.9 µM)	> 64	> 64	8 (≈ 20.2 µM)	> 64
Cc1ccccc1-n1nc(COc2ccc(F)c(C(N)=O)c2F)oc1=O	64 (≈ 177 µM)	> 64	> 64	16 (≈ 44.3 µM)	> 64	> 64	16 (≈ 44.3 µM)	> 64
CCCn1c(COc2ccc(F)c(C(N)=O)c2F)nn(-c2ccc(Br)cc2)c1=O	32 (≈ 68.5 µM)		> 64	> 64	> 64	> 64	32 (≈ 68.5 µM)	> 64
NC(=O)c1c(F)ccc(OCC2=NN(c3ccc(Cl)cc3)C(=O)C2)c1F	> 64		> 64	> 64	> 64	> 64	> 64	> 64
CCCCCCCCn1c(COc2ccc(F)c(C(N)=O)c2F)nn(-c2ccc(Br)cc2)c1=O	> 64		> 64	> 64	> 64	> 64	> 64	> 64
CC[C@H]1OC(=O)[C@H](C)[C@@H](O[C@H]2C[C@@](C)(OC)[C@@H](O)[C@H](C)O2)[C@H](C)[C@@H](O[C@@H]2O[C@H](C)C[C@H](N(C)C)[C@H]2O)[C@](C)(O)C[C@@H](C)C(=O)[C@H](C)[C@@H](O)[C@]1(C)O [ERYTHROMYCIN]	> 64	> 64	32 (≈ 43.6 µM)	≤ 0.125	16 (≈ 21.8 µM)		≤ 0.125	≤ 0.125
CCCCn1c(COc2ccc(F)c(C(N)=O)c2F)nn(-c2ccc(Br)cc2)c1=O	> 64		> 64	> 64	> 64	> 64	> 64	> 64
Cn1c(COc2ccc(F)c(C(N)=O)c2F)nn(-c2ccc(Br)cc2)c1=O	> 64		> 64	1 (≈ 2.28 µM)	> 64	> 64	64 (≈ 146 µM)	> 64
